Results: patent US20050014787A1, “5-amidino-2-hydroxybenzenesulfonamide derivatives medicinal compoistions containing the same medicinal use thereof and intermediates in the production thereof” (priority 2001, published 2005)

Key:
[1] = target: T1, human activated blood coagulation factor X (Homo sapiens, UniProt P00742); assay: Measurement of inhibitory activity for activated blood coagulation factor X (S-2222 chromogenic substrate); type: biochemical; details: S-2222 substrate, pH 8.4, 10 minutes at 37° C., absorbance 405 nm
T1 construct: purchased Calbiochem
T1 sequence (P00742 235-488 limits assumed): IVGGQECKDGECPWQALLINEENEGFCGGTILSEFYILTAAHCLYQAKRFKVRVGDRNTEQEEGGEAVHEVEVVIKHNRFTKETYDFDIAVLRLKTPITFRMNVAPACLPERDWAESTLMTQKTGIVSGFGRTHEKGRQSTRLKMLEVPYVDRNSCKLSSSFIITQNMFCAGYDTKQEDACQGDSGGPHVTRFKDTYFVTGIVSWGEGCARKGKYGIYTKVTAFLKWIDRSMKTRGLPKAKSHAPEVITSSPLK
T1 sequence (P00742 41-179 partner limits assumed): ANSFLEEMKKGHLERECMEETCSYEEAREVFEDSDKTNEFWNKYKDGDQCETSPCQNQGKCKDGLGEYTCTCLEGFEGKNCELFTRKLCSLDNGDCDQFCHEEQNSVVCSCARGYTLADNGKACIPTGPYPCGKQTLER
Method: Measurement of inhibitory activity for activated blood coagulation factor X
(§1) 2.5 μL of a dimethylsulfoxide solution of a test compound, 187.5 μL of 100 mM tris-200 mM NaCl buffer (pH 8.4) and 50 μL of 1 mM S-2222 (Daiichi Pure Chemicals) aqueous solution were poured into 96 well microplate. Then 10 μL of 0.6 U/mL human activated blood coagulation factor X (Calbiochem) in gelatin-glycine buffer was added and the mixture was incubated for 10 minutes at 37° C. The reaction was terminated with the addition of 50 μL of 60% acetic acid and absorbance (405 nm) was measured by a microplate reader (SPECTRAmax250, Molecular Devices).
(§2) The group with 2.5 μL of the dimethylsulfoxide solution instead of the test compound solution was defined as the control, and the group with 10 μL of the gelatin-glycine buffer solution instead of human activated blood coagulation factor X was defined as the blank. The concentration of a test compound that inhibited the absorbance of control by 50% (IC50) was obtained, and this value was used as the index of inhibitory activity for activated blood coagulation factor X. Results were shown as Table 1.

human thrombin = target: T2, human thrombin (Homo sapiens, UniProt P00734); assay: Measurement of inhibitory activity for thrombin (S-2238 chromogenic substrate); type: biochemical; details: S-2238 substrate, pH 8.4, 10 minutes at 37° C., absorbance 405 nm
T2 construct: human thrombin (Sigma Chemical Company); purchased Sigma Chemical Company
Method: Measurement of inhibitory activity for thrombin
as §1, with “S-2238” for “S-2222”, “2.0” for “0.6”, “thrombin (Sigma Chemical Company)” for “activated blood coagulation factor X (Calbiochem)”
as §2, with “thrombin” for “activated blood coagulation factor X”, “thrombin.” for “activated blood coagulation factor X. Results were shown as Table 1.”

`N=C(N)c1ccc(O)c(S(=O)(=O)NCCc2ccc(-c3ccccc3S(N)(=O)=O)cc2)c1` [Compound 15, 5-Carbamimidoyl-2-hydroxy-N-[2-(2′-sulfamoylbiphenyl-4-yl)-ethyl]benzenesulfnamide] was tested, and the IC50 [1] was 0.0038 µM.
Molecule `CC(C)c1ccc(CCN(C)S(=O)(=O)c2cc(C(=N)N)ccc2O)cc1` [Compound 17, 5-Carbamimidoyl-2-hydroxy-N-[2-(4-isopropylphenyl)ethyl]-N-methylbenzenesulfonamide] has an IC50 (human thrombin) of 26 µM and an IC50 [1] of 0.16 µM.
Work on `CC(C)c1ccc(CCN(CC(=O)N2CCOCC2)S(=O)(=O)c2cc(C(=N)N)ccc2O)cc1` [Compound 14, 5-Carbamimidoyl-2-hydroxy-N-[2-(4-isopropylphenyl)ethyl]-N-(2-morpholin-4-yl-2-oxoethyl)benzenesulfonamide] yielded an IC50 (human thrombin) of 27 µM and an IC50 [1] of 0.051 µM.
